Data on twelve compounds can be found in ChEMBL document CHEMBL1201862, “PubChem BioAssay data set” (2004).

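How tested: cells in 96-well plates exposed to compound for 48 hours at five concentrations. Abbreviation: GI50, concentration required for 50% inhibition of growth.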 Active and inactive are the calls of the source. No stated cut-off is given here; in the data, active = GI50 up to about 1.1 µM and inactive = higher.

Among the test systems are LOX IMVI; SNB-19; SW-620; SF-539; SF-295; KM12; HCT-116; COLO 205; K562; ACHN; NCI-H23; CCRF-CEM; TK-10; RXF 393; NCI-H226; OVCAR-8; IGROV-1; SR.
What all share (experiment): growth of human tumour cells (NCI), 48 h

On to `CCN(CC)Cc1cc(Nc2c3ccccc3nc3c4ccccc4n(C)c23)ccc1O`, for which the GI50 in the assay with LOX IMVI was 2.83 µM (inactive); in the assay with SNB-19, 16.7 µM (inactive); in the assay on SW-620, 6.07 µM (inactive); in the assay with SF-539, 3.87 µM (inactive); in the assay on SF-295, 10 µM (inactive); in the assay with KM12 it was 7.73 µM (inactive). Further, the GI50 is 7.16 µM (inactive) in the assay on HCT-116; 4.73 µM (inactive) with COLO 205; 2.51 µM (inactive) in the assay on K562; 11.2 µM (inactive) with ACHN; 15.1 µM (inactive) in the assay on NCI-H23; 2.05 µM (inactive) in the assay with CCRF-CEM. The GI50 is 13.9 µM (inactive) with TK-10; 11.3 µM (inactive) with RXF 393; 29.2 µM (inactive) in the assay with NCI-H226; 9.25 µM (inactive) in the assay with OVCAR-8; 15.4 µM (inactive) in the assay on IGROV-1.
On to `CCCCCCCCCCCCCCCCCCOCC1(COP(=O)([O-])OCC[N+](C)(C)C)CCCO1` (stereo unspecified), for which the GI50 was 6.43 µM (inactive) in the assay with LOX IMVI; 3.7 µM (inactive) in the assay with SNB-19; 15.8 µM (inactive) in the assay on SF-539; 2.34 µM (inactive) in the assay on SF-295; 1.39 µM (inactive) with KM12; 10.1 µM (inactive) in the assay on HCT-116. Besides, the GI50 in the assay on COLO 205 was 1.87 µM (inactive); in the assay with K562 it was 16.4 µM (inactive); with ACHN it was 6.37 µM (inactive); in the assay on NCI-H23, 16.8 µM (inactive); in the assay with CCRF-CEM, 2.89 µM (inactive); with TK-10 it was 1.6 µM (inactive). The GI50 with RXF 393 is 0.393 µM (active); in the assay with NCI-H226 it was 5.01 µM (inactive); in the assay with OVCAR-8, 11.2 µM (inactive); in the assay on IGROV-1, 2.49 µM (inactive).
As for `NC(=O)COC(=O)c1c(Cl)nc2sccn12`, the GI50 in the assay on LOX IMVI is > 75.5 µM (inactive); in the assay with SNB-19 it was > 100 µM (inactive); in the assay on SW-620 it was > 35.3 µM (inactive); with SF-539, > 100 µM (inactive); in the assay with SF-295 it was > 100 µM (inactive); in the assay on KM12, > 100 µM (inactive). For the same compound, the GI50 was > 31.6 µM (inactive) in the assay with HCT-116; > 60.3 µM (inactive) in the assay with COLO 205; > 63.2 µM (inactive) in the assay on K562; > 100 µM (inactive) in the assay with ACHN; > 100 µM (inactive) in the assay on NCI-H23; > 31.6 µM (inactive) with CCRF-CEM. For the same compound, the GI50 is > 100 µM (inactive) in the assay on TK-10; > 100 µM (inactive) with NCI-H226; 33.8 µM (inactive) in the assay on SR; > 100 µM (inactive) in the assay on OVCAR-8; > 100 µM (inactive) in the assay on IGROV-1.
As to `Cc1cc2c(=O)cc(-c3ccc(C(=O)O)cc3)oc2c(C(=O)O)c1C`, the GI50 in the assay with LOX IMVI, in the assay on SNB-19, with SW-620, in the assay on SF-539, in the assay with SF-295 and in the assay with KM12 was > 100 µM (inactive) each time. For the same compound, the GI50 in the assay on HCT-116, with COLO 205, in the assay with K562, in the assay on ACHN, in the assay with NCI-H23 and in the assay with CCRF-CEM was > 100 µM (inactive) throughout. The GI50 in the assay on TK-10, in the assay on NCI-H226, in the assay on SR, with OVCAR-8 and in the assay on IGROV-1 was > 100 µM (inactive) in each case.
Regarding `COc1ccc(Br)c(N/N=C2\CCCNC2=O)c1`, the GI50 with LOX IMVI was > 100 µM (inactive); in the assay with SNB-19, > 100 µM (inactive); in the assay on SW-620, 71.1 µM (inactive); in the assay on SF-539, 95.5 µM (inactive); in the assay with SF-295, > 100 µM (inactive); with KM12, > 100 µM (inactive). Also, the GI50 with HCT-116 was > 100 µM (inactive); in the assay with COLO 205, 48 µM (inactive); with K562, > 100 µM (inactive); in the assay with ACHN, 40.4 µM (inactive); with NCI-H23, > 100 µM (inactive); in the assay with CCRF-CEM it was > 100 µM (inactive). Further, the GI50 in the assay on TK-10 is 57 µM (inactive); with NCI-H226 it was > 100 µM (inactive); with SR, 4.71 µM (inactive); in the assay on OVCAR-8 it was > 100 µM (inactive); with IGROV-1 it was 96.4 µM (inactive).
In the case of `C[C@]12Cc3cn[nH]c3C(=O)C1CC[C@@H]1C2CC[C@@]2(C)C1CC[C@@H]2O` (stereo partly specified), the GI50 in the assay on LOX IMVI, in the assay on SNB-19, in the assay on SW-620, in the assay on SF-539, in the assay with SF-295 and in the assay on KM12 was > 100 µM (inactive) each time. Also, the GI50 in the assay on HCT-116, with COLO 205, in the assay on K562, in the assay with ACHN, with NCI-H23 and in the assay on CCRF-CEM was > 100 µM (inactive) throughout. For the same compound, the GI50 in the assay with TK-10, with RXF 393, in the assay on NCI-H226, with OVCAR-8 and in the assay with IGROV-1 was > 100 µM (inactive) each time.
For the compound `C=C1C2CCCC1C1(S(C)(=O)=O)CCCCC21O` (stereo unspecified), the GI50 with SNB-19, with SW-620, in the assay with SF-539, in the assay with SF-295, in the assay with KM12 and in the assay on HCT-116 was > 100 µM (inactive) in each case. The GI50 with COLO 205, in the assay with K562, with ACHN, in the assay with NCI-H23, in the assay on TK-10 and with NCI-H226 was > 100 µM (inactive) throughout. Moreover, the GI50 in the assay with SR, in the assay on OVCAR-8 and in the assay on IGROV-1 was > 100 µM (inactive) throughout.
Consider `C[C@]12CCC[C@H](O)[C@H]1C[C@H](CO)CC2`, for which the GI50 with LOX IMVI, with SNB-19, with SW-620, in the assay on SF-539, with SF-295 and in the assay with KM12 was > 100 µM (inactive) throughout. The GI50 in the assay with HCT-116, in the assay on COLO 205, with K562, in the assay on ACHN, with NCI-H23 and in the assay on CCRF-CEM was > 100 µM (inactive) each time. For the same compound, the GI50 in the assay with TK-10, in the assay with NCI-H226, with SR, in the assay on OVCAR-8 and in the assay on IGROV-1 was > 100 µM (inactive) each time.
Turning to `CCN(CC)CCNc1ccc2nc(C)n3c4ccc(O)cc4c(=O)c1c23`, the GI50 is 0.71 µM (active) with LOX IMVI; 0.546 µM (active) in the assay with SNB-19; 0.596 µM (active) in the assay on SW-620; 1.79 µM (inactive) with SF-539; 0.462 µM (active) in the assay on SF-295; 3.02 µM (inactive) with KM12. In addition, the GI50 in the assay with HCT-116 is 0.357 µM (active); with K562, 1.48 µM (inactive); with ACHN, 0.231 µM (active); in the assay on NCI-H226, 0.16 µM (active); in the assay with SR it was 0.049 µM (active); with OVCAR-8 it was 0.371 µM (active). The GI50 in the assay on IGROV-1 was 1.38 µM (inactive).
As for `CC(C)(Oc1ccc(C(=O)c2ccc(Cl)cc2)cc1Cl)C(=O)N1CCN(c2ccccc2)CC1`, the GI50 with LOX IMVI, in the assay on SNB-19, in the assay with SW-620, with SF-539, with SF-295 and in the assay on KM12 was > 100 µM (inactive) throughout. The GI50 in the assay on HCT-116 is 82.2 µM (inactive); with K562, 34.4 µM (inactive); in the assay with NCI-H23, 37.2 µM (inactive); in the assay on CCRF-CEM, > 100 µM (inactive); with TK-10, > 100 µM (inactive); with SR, 66.1 µM (inactive). For the same compound, the GI50 in the assay on OVCAR-8 and in the assay with IGROV-1 was > 100 µM (inactive) throughout.
For `O=C(O)/C(Cl)=C(\Cl)C(=O)Nc1ccc(Cl)c(Cl)c1Cl`, the GI50 in the assay on LOX IMVI is 17.4 µM (inactive); in the assay on SNB-19, 15.3 µM (inactive); in the assay with SW-620, 20.5 µM (inactive); in the assay on SF-539 it was 19.1 µM (inactive); in the assay with SF-295, 18.5 µM (inactive); in the assay with KM12, 19.4 µM (inactive). Also, the GI50 in the assay with HCT-116 is 11.8 µM (inactive); in the assay with COLO 205 it was 20 µM (inactive); with K562, 28 µM (inactive); in the assay on ACHN, 18.1 µM (inactive); with NCI-H23, 18.7 µM (inactive); in the assay with CCRF-CEM, 37.2 µM (inactive). Moreover, the GI50 with TK-10 was 16.8 µM (inactive); in the assay with NCI-H226, 17.5 µM (inactive); with SR, 25.1 µM (inactive); in the assay on IGROV-1, 20.7 µM (inactive).
With `O=C1CCC2(c3ccccc3)Nc3ccccc3N12` (stereo unspecified), the GI50 in the assay with LOX IMVI, with SW-620, with SF-539, with SF-295, with KM12 and in the assay on COLO 205 was > 100 µM (inactive) in each case. The GI50 with K562, with ACHN, with NCI-H23, with CCRF-CEM, in the assay with TK-10 and in the assay on RXF 393 was > 100 µM (inactive) each time. Also, the GI50 in the assay on NCI-H226, in the assay with OVCAR-8 and in the assay with IGROV-1 was > 100 µM (inactive) each time.
